These results are taken from patent publication US20250059180A1 (DONG WHA PHARM. CO., LTD., priority 2022, published 2025).

In the first assay the test system is Pfeiffer cells, lymphoma cells having EZH2 mutation (A677G). As to the kind of experiment: Proliferation inhibition of cells of hematologic malignancies (CCK-8, 11 days). To be noted: 11 days culture, read-out: Cell proliferation inhibitory effect (IC50). The format is cell-based. The method in brief:
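Pfeiffer lymphoma cells (EZH2 A677G) in RPMI1640 with 10% FBS were seeded at 10,000 cells/well and exposed to test material for 11 days, with compound replaced every 3–4 days. Viability was read by CCK-8 absorbance at 450 nm, and IC50 was derived by non-linear regression curve fitting.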
As for `CSc1cc(C)[nH]c(=O)c1CNC(=O)c1cc(-c2ccc(N3CCOCC3)nc2)c2c(c1C)OC(C)(C1CCN(CC(F)(F)F)CC1)O2` (stereo not drawn) [Compound 63, 2,4-dimethyl-N-((6-methyl-4-(methylthio)-2-oxo-1,2-dihydropyridin-3-yl)methyl)-7-(6-morpholinopyridin-3-yl)-2-(1-(2,2,2-trifluoro)piperidin-4-yl)benzo[d][1,3]dioxole-5-carboxamide], the IC50 was not below 100 nM. On the same count and under the same terms, the result for `CSc1cc(C)[nH]c(=O)c1CNC(=O)c1cc(-c2cnc(N3CCOCC3)nc2)c2c(c1C)OC(C)(C1CCN(CC(F)(F)F)CC1)O2` (stereo not drawn) [Compound 70, 2,4-dimethyl-N-((6-methyl-4-(methylthio)-2-oxo-1,2-dihydropyridin-3-yl)methyl)-7-(2-morpholinopyrimidin-5-yl)-2-(1-(2,2,2-trifluoro)piperidin-4-yl)benzo[d][1,3]dioxole-5-carboxamide] reads not below 100 nM; that for `CCN1CCC(C2(C)Oc3c(-c4cnc(N5CCOCC5)nc4)cc(C(=O)NCc4c(SC)cc(C)[nH]c4=O)c(C)c3O2)CC1` (stereo not drawn) [Compound 74, 2-(1-ethylpiperidin-4-yl)-2,4-dimethyl-N-((6-methyl-4-(methylthio)-2-oxo-1,2-dihydropyridin-3-yl)methyl)-7-(2-morpholinopyrimidin-5-yl)benzo[d][1,3]dioxole-5-carboxamide], not below 100 nM; that for `CCN(C)c1ccc(-c2cc(C(=O)NCc3c(SC)cc(C)[nH]c3=O)c(C)c3c2OC(C)(C2CCN(CC(F)(F)F)CC2)O3)cn1` (stereo not drawn) [Compound 87, 7-(6-(ethyl(methyl)amino)pyridin-3-yl)-2,4-dimethyl-N-((6-methyl-4-(methylthio)-2-oxo-1,2-dihydropyridin-3-yl)methyl)-2-(1-(2,2,2-trifluoroethyl)piperidin-4-vi)benzo[d][1,3]dioxole-5-carboxamide], 10 to 100 nM.

The assay is the same for the next values; noted with them: Homo sapiens, Pfeiffer, 264 h, 11 days culture, read-out: Cell proliferation inhibitory effect (IC50).
For `CSc1cc(C)[nH]c(=O)c1CNC(=O)c1cc(-c2ccc(N3CC(C)CC(C)C3)nc2)c2c(c1C)OC(C)(C1CCN(CC(F)(F)F)CC1)O2` (stereo not drawn) [Compound 37, 7-(6-(3,5-dimethylpiperidin-1-yl)pyridin-3-yl)-2,4-dimethyl-N-((6-methyl-4-(methylthio)-2-oxo-1,2-dihydropyridin-3-yl)methyl)-2-(1-(2,2,2-trifluoroethyl)piperidin-4-yl)benzo[d][1,3]dioxole-5-carboxamide], the IC50 is 10 to 100 nM. Still for that read-out and setting: the result for `CSc1cc(C)[nH]c(=O)c1CNC(=O)c1cc(-c2cnc(N3C[C@@H](C)O[C@@H](C)C3)nc2)c2c(c1C)OC(C)(C1CCN(CC(F)(F)F)CC1)O2` (stereo partly drawn) [Compound 38, 7-(2-((2S,6R)-2,6-dimethylmorpholino)pyrimidin-5-yl)-2,4-dimethyl-N-((6-methyl-4-(methylthio)-2-oxo-1,2-dihydropyridin-3-yl)methyl)-2-(1-(2,2,2-trifluoroethyl)piperidin-4-yl)benzo[d][1,3]dioxole-5-carboxamide] reads not above 10 nM; that for `CSc1cc(C)[nH]c(=O)c1CNC(=O)c1cc(-c2cnc(N3CCCCC3)nc2)c2c(c1C)OC(C)(C1CCN(CC(F)(F)F)CC1)O2` (stereo not drawn) [Compound 39, 2,4-dimethyl-N-((6-methyl-4-(methylthio)-2-oxo-1,2-dihydropyridin-3-yl)methyl)-7-(2-(piperidin-1-yl)pyrimidin-5-yl)-2-(1-(2,2,2-trifluoroethyl)piperidin-4-yl)benzo[d][1,3]dioxole-5-carboxamide], not above 10 nM. Same read-out and setting: in the case of `CSc1cc(C)[nH]c(=O)c1CNC(=O)c1cc(-c2ccc(N3C[C@@H](C)O[C@@H](C)C3)nc2)c2c(c1C)OC(C)(C1CCN(C[C@H](C)O)CC1)O2` (stereo partly drawn) [Compound 40, 7-(6-((2S,6R)-2,6-dimethylmorpholino)pyridin-3-yl)-2-(1-((S)-2-hydroxypropyl)piperidin-4-yl)-2,4-dimethyl-N-((6-methyl-4-(methylthio)-2-oxo-1,2-dihydropyridin-3-yl)methyl)benzo[d][1,3]dioxole-5-carboxamide] it was not above 10 nM. Same read-out and setting: the result for `COC(CN1CCC(C2(C)Oc3c(-c4ccc(N5C[C@@H](C)O[C@@H](C)C5)nc4)cc(C(=O)NCc4c(SC)cc(C)[nH]c4=O)c(C)c3O2)CC1)OC` (stereo partly drawn) [Compound 41, 2-(1-(2,2-dimethoxyethyl)piperidin-4-yl)-7-(6-((2S,6R)-2,6-dimethylmorpholino)pyridin-3-yl)-2,4-dimethyl-N-((6-methyl-4-(methylthio)-2-oxo-1,2-dihydropyridin-3-yl)methyl)benzo[d][1,3]dioxole-5-carboxamide] reads not above 10 nM. `CSc1cc(C)[nH]c(=O)c1CNC(=O)c1cc(-c2ccsc2)c2c(c1C)OC(C)(C1CCC(N(C)C)CC1)O2` (stereo not drawn) [Compound 42, 2-(4-(dimethylamino)cyclohexyl)-2,4-dimethyl-N-((6-methyl-4-(methylthio)-2-oxo-1,2-dihydropyridin-3-yl)methyl)-7-(thiophen-3-yl)benzo[d][1,3]dioxole-5-carboxamide]: the IC50 was not above 10 nM. Same read-out and setting: in the case of `CSc1cc(C)[nH]c(=O)c1CNC(=O)c1cc(-c2ccc(N3C[C@@H](C)O[C@@H](C)C3)nc2)c2c(c1C)OC(C)(C1CCN(CC(F)F)CC1)O2` (stereo partly drawn) [Compound 46, 2-(1-(2,2-difluoroethyl)piperidin-4-yl)-7-(6-((2S,6R)-2,6-dimethylmorpholino)pyridin-3-yl)-2,4-dimethyl-N-((6-methyl-4-(methylthio)-2-oxo-1,2-dihydropyridin-3-yl)methyl)benzo[d][1,3]dioxole-5-carboxamide] it was not above 10 nM; in that of `CSc1cc(C)[nH]c(=O)c1CNC(=O)c1cc(-c2ccc(N3CCOCC3)nc2)c2c(c1C)OC(C)(C1CCN(CC(F)(F)F)CC1)O2` (stereo not drawn) [Compound 61, 2,4-dimethyl-N-((6-methyl-4-(methylthio)-2-oxo-1,2-dihydropyridin-3-yl)methyl)-7-(6-morpholinopyridin-3-yl)-2-(1-(2,2,2-trifluoro)piperidin-4-yl)benzo[d][1,3]dioxole-5-carboxamide], not above 10 nM; in that of `CSc1cc(C)[nH]c(=O)c1CNC(=O)c1cc(-c2cnc(N3CCOCC3)nc2)c2c(c1C)OC(C)(C1CCN(CC(F)(F)F)CC1)O2` (stereo not drawn) [Compound 68, 2,4-dimethyl-N-((6-methyl-4-(methylthio)-2-oxo-1,2-dihydropyridin-3-yl)methyl)-7-(2-morpholinopyrimidin-5-yl)-2-(1-(2,2,2-trifluoro)piperidin-4-yl)benzo[d][1,3]dioxole-5-carboxamide], not above 10 nM. As for `CCN1CCN(c2ncc(-c3cc(C(=O)NCc4c(SC)cc(C)[nH]c4=O)c(C)c4c3OC(C)(C3CCN(CC(F)(F)F)CC3)O4)cn2)CC1` (stereo not drawn) [Compound 75, 7-(2-(4-ethylpiperazin-1-yl)pyrimidin-5-yl)-2,4-dimethyl-N-((6-methyl-4-(methylthio)-2-oxo-1,2-dihydropyridin-3-yl)methyl)-2-(1-(2,2,2-trifluoroethyl)piperidin-4-yl)benzo[d][1,3]dioxole-5-carboxamide], the IC50 is not above 10 nM. Still for that read-out and setting: the result for `CCN(C)c1ncc(-c2cc(C(=O)NCc3c(SC)cc(C)[nH]c3=O)c(C)c3c2OC(C)(C2CCN(CC(F)(F)F)CC2)O3)cn1` (stereo not drawn) [Compound 78] reads not above 10 nM; that for `CSc1cc(C)[nH]c(=O)c1CNC(=O)c1cc(-c2ccc(N3CCCCC3)cc2)c2c(c1C)OC(C)(C1CCN(CC(F)(F)F)CC1)O2` (stereo not drawn) [Compound 90, 2,4-dimethyl-N-((6-methyl-4-(methylthio)-2-oxo-1,2-dihydropyridin-3-yl)methyl)-7-(4-(piperidin-1-yl)phenyl)-2-(1-(2,2,2-trifluoroethyl)piperidin-4-yl)benzo[d][1,3]dioxole-5-carboxamide], 10 to 100 nM; that for `CSc1cc(C)[nH]c(=O)c1CNC(=O)c1cc(-c2ccc(N3CCCCC3)nc2)c2c(c1C)OC(C)(C1CCN(CC(F)(F)F)CC1)O2` (stereo not drawn) [Compound 91, 2,4-dimethyl-N-((6-methyl-4-(methylthio)-2-oxo-1,2-dihydropyridin-3-yl)methyl)-7-(6-(piperidin-1-yl)pyridin-3-yl)-2-(1-(2,2,2-trifluoroethyl)piperidin-4-yl)benzo[d][1,3]dioxole-5-carboxamide], not below 100 nM. Still for that read-out and setting: the result for `CSc1cc(C)[nH]c(=O)c1CNC(=O)c1cc(-c2cnc(N3CCSCC3)nc2)c2c(c1C)OC(C)(C1CCN(CC(F)(F)F)CC1)O2` (stereo not drawn) [Compound 92, 2,4-dimethyl-N-((6-methyl-4-(methylthio)-2-oxo-1,2-dihydropyridin-3-yl)methyl)-7-(2-thiomorpholinopyrimidin-5-yl)-2-(1-(2,2,2-trifluoroethyl)piperidin-4-yl)benzo[d][1,3]dioxole-5-carboxamide] reads 10 to 100 nM; that for `CSc1cc(C)[nH]c(=O)c1CNC(=O)c1cc(-c2ccc3c(c2)OC(F)(F)O3)c2c(c1C)OC(C)(C1CCN(CC(F)(F)F)CC1)O2` (stereo not drawn) [Compound 93, 2′,2′-difluoro-2,7-dimethyl-N-((6-methyl-4-(methylthio)-2-oxo-1,2-dihydropyridin-3-yl)methyl)-2-(1-(2,2,2-trifluoroethyl)piperidin-4-yl)-[4,5′-bibenzo[d][1,3]dioxol]-6-carboxamide], not below 100 nM. The same measure, in the same setting: the result for `CSc1cc(C)[nH]c(=O)c1CNC(=O)c1cc(-c2ccc3c(c2)OCO3)c2c(c1C)OC(C)(C1CCN(CC(F)(F)F)CC1)O2` (stereo not drawn) [Compound 94, 2,7-dimethyl-N-((6-methyl-4-(methylthio)-2-oxo-1,2-dihydropyridin-3-yl)methyl)-2-(1-(2,2,2-trifluoroethyl)piperidin-4-yl)-[4,5′-bibenzo[d][1,3]dioxol]-6-carboxamide] reads 10 to 100 nM; that for `CSc1cc(C)[nH]c(=O)c1CNC(=O)c1cc(-c2ccc3c(c2)OCO3)c2c(c1C)OC(C)(C1CCN(CC(F)F)CC1)O2` (stereo not drawn) [Compound 95, 2-(1-(2,2-difluoroethyl)piperidin-4-yl)-2,7-dimethyl-N-((6-methyl-4-(methylthio)-2-oxo-1,2-dihydropyridin-3-yl)methyl)-[4,5′-bibenzo[d][1,3]dioxol]-6-carboxamide], 10 to 100 nM.
